We go through one molecule from publication PMC11241262, “Unravelling the Antifibrinolytic Mechanism of Action of the 1,2,3-Triazole Derivatives” (International Journal of Molecular Sciences, 2024).

≈ marks a conversion by molar mass, not a printed value.

In data set [1] the test system is whole blood clot formation. Nature of the data set: Whole blood coagulation assay (clot formation, no exogenous tPA). Also noted: species or system human. The following applies: 40 µM, 37 °C, fibrinolysis not triggered. As to the method: (§1) Blood was obtained by venipuncture from healthy donors after they signed an informed consent form. Blood was transferred into vacuum non-anticoagulant Vacutainer® tubes (BD, Franklin Lakes, NJ, USA). Blood samples were immediately used for the assay after extraction.
Prior to blood addition, 20 µL of the evaluated compounds was added to glass tubes, in a final concentration of 40 µM. As a control clot, 20 µL of Tris HCl buffer with no compound was used. Next, 800 µL of blood was transferred to each tube followed by casual shaking to ensure proper mixing. Tubes were incubated at 37 °C for 30 min to allow clot formation and posterior lysis. Blood clotting and lysis were visually monitored and photographs were taken after 30 min.

In the next data set the test system is whole blood clots. Nature of the data set: Whole blood dosage (effective antifibrinolytic dosage, tPA-triggered clot lysis). Also noted: species or system human. As to conditions: 10 µg/mL tPA, 37 °C. As for the experimental part:
as §1
Glass tubes were prepared with 20 µL of a mixture of tPA, in a final concentration of 10 µg/mL, and the evaluated compounds, in a final concentration of 10, 20, 40, or 60 µM in Tris HCl buffer. A control clot was obtained with 20 µL of tPA with no compound. Then, 800 µL of blood was transferred to each tube and tubes were monitored for clot formation and lysis. The assay was performed with casual shaking. […] The ex vivo effective dosage for each compound was determined by their ability to inhibit complete clot degradation. Photographs were taken after 24 h of incubation.

Data set [2] can be described thus: in vivo. The following applies: dog, iv, 5 mg/kg; for Morbidity / Mortality: 24 h. As for the experimental part:
For the pharmacokinetic study in Beagle dogs, a total of 3 male and 3 female dogs were selected. They were acclimatized for 5 days before dosing and at the start of dosing, dogs were between 36 and 37 months old. […] Sterile water was also selected as a vehicle for injection of compound 5. […] A constant dose volume of 1 mL/kg body weight was administered, adjusted according to the most recently recorded body weight of each dog. A single dose of 5 mg/kg b. wt. was selected in the case of dogs.
Blood collection, plasma separation, and storage procedures were conducted following the same procedure as described for rats. Blood samples (600 µL) were collected from the cephalic vein of the forelimb for each dog. However, the concentration of compound 5 was determined using LC-MS/MS analysis. A column with identical characteristics to the one used in rats was employed, with a flow rate of 0.65 mL/min, a binary elution mode, and a run time of 6.0 min. Plasma samples were analyzed to determine the concentration of the active ingredient, and subsequently, the pharmacokinetic parameters were calculated. After a washout period of 7 days, dogs were returned back to stock.

A short description of data set [3]: in vivo. The following applies: both sexes, Wistar, rat, iv. As to the method:
A MTD study was performed for compound 5 in Wistar rats and Beagle dogs. A total of 25 male and 25 female Wistar rats were received in the experimental room and acclimatized for a period of 5 days prior to randomization. The environmental and housing conditions maintained during the experiment were identical to those described in the pharmacokinetic study. At the start of dosing, rats were between 6 and 7 w.o., and their body weight varied no more than ±20% from the mean body weight for each sex. During randomization, 20 male and 20 female rats were selected for the study, which were randomly allocated to four different dose level groups: D1, D2, D3, and D4. Each group consisted of 5 male and 5 female rats. The remaining 5 male and 5 female rats were returned to the animal facility.
Dose formulations of compound 5 were administered by an intravenous bolus injection through the tail vein, using a sterile needle attached to a graduated syringe. Sterile water also served as a vehicle in the MTD assay. A fixed dose volume of 5 mL/kg b. wt. was used, and individual doses were adjusted according to the most recent recorded body weight of each rat. […]
Rats were subjected to twice-daily monitoring for clinical, mortality, and morbidity signs throughout the study. […] Body weight was recorded on days 1 (before treatment), 4, 8, 11, and 14 of the study. […]

The nature of data set [4]: in vivo. As to conditions: dog. As to the method: In the case of dogs, one male and one female Beagle dog were selected for the study. A period of 5 days was used to allow dogs to acclimatize, and at the start of dosing, they were between 5 and 6 months old. Dogs were housed individually per sex in an environmentally controlled room, maintained at 24 ± 2 °C and 71.5 ± 4.5% relative humidity, on a 12–12 h light–dark cycle (beginning at 06:00 h) with 17 or 22 air changes per hour. Dogs were provided with 300 g feed every day and with water ad libitum.
Compound 5 was administered via an intravenous bolus injection through the cephalic vein of the forelimb, using a sterile needle attached to a graduated syringe. An initial dose level of 50 mg/kg b. wt. […] Following a washout period of 7 days, a dose of 75 mg/kg b. wt. […] A constant volume of 1 mL/kg b. wt. was used, with individual doses adjusted to the most recent recorded body weight of each animal. Dogs were observed twice daily for clinical, mortality, and morbidity signs throughout the study period of 7 days. Body weight was recorded on dosing day and every two days during the assay period. Additionally, a daily record of individual dog feed intake and leftover feed was maintained. Blood samples were obtained prior to dosing and on day 7. Blood was extracted either from the cephalic vein in the forelimb or the lateral saphenous vein in the hind limb. Around 2.0 mL of blood was collected in non-heparin centrifuge tubes for serum separation to conduct clinical chemistry estimations. An additional 0.5 mL of blood was collected in EDTA-containing vials for hematology analysis and another 0.5 mL of blood was collected in tubes containing a 3.2% sodium citrate solution for Prothrombin time determination. Dogs were fasted overnight, with only water allowed prior to blood collection. Hematology and clinical chemistry determinations are available upon request. Dogs were euthanized by an intravenous injection of barbiturate (thiopentone sodium 100 mg/kg b. wt.). Then, a comprehensive gross necropsy was performed. Dogs were first examined for external abnormalities. The cranial, thoracic, and abdominal cavities were then dissected, and a thorough examination of the organs was conducted. Specifically, the liver, testes, uterus, brain, and kidneys were collected and subjected to microscopic examination using paraffin-embedded tissue stained with hematoxylin-eosin.

The nature of data set [5]: Maximum solubility in plasmin assay. The format is physicochemical. The following applies: Tris HCl buffer (plasmin activity assay solution), pH 7.5.

Broadly, the Cmax is the maximum level reached in the sampled fluid or tissue. The Tmax is the time at which the peak concentration occurs. A word on the half-life: it is the time needed for the level to fall by half in the phase considered. A low value points to fast loss. By solubility is commonly meant how much of the substance goes into solution per volume. A high value points to a readily soluble substance. As to `O=c1[nH]nc(-c2cn(C3CCNCC3)nn2)o1` [compound 5], in data set [1], the “effect on clot formation” value is “do not have any effect”. Moreover, the “effective dosage (concentration preventing complete clot degradation after 24 h)” value in the data set on whole blood clots turned out to be 10 µM. For the same molecule, in “in vivo [2]” (female, Beagle), the “Clinical signs observed: N of dogs with Mild vomiting” value was found to be 1, the Cmax is 15800 ng/mL, the Kel worked out at 0.23 h‐1 and the Tmax was found to be 4.8 min. In “in vivo [2]” (female, Beagle), the half-life is 3.04 h, the Morbidity is 0 number of dogs and the Mortality was 0 number of dogs. Moreover, in “in vivo [2]” (male, Beagle), the “Clinical signs observed: N of dogs with Mild vomiting” value was determined as 1, the Cmax was found to be 14000 ng/mL, the Kel is reported as 0.24 h‐1 and the Tmax was 4.8 min. Moreover, the half-life in the data set “in vivo [2]” (male, Beagle) was 2.88 h. In addition, in the data set “in vivo [2]” (male, beagle), the Morbidity is reported as 0 number of dogs and the Mortality is on record as 0 number of dogs. In “in vivo [3]”, this molecule came in with an MTD at 14 days of 300 mg/kg. The MTD at 7 days in “in vivo [4]” (both, Beagle, iv) came out at 75 mg/kg. For the same molecule, in “in vivo [4]”, the “Microscopic Findings, kidneys” value is given as “Kidneys (bilateral): min ima l infiltration”; the “Microscopic Findings, testes” value is reported as “Testes (bilateral): immature – present”; the “hematology and clinical chemistry parameters” value is recorded as “did not show any alteration”; the “terminal body and organ weight” value is “no treatment-related alterations”. Besides, the solubility in data set [5] was 20 mM (≈ 4720 µg/mL).
